Patent US20240082222A1, “4-CHLORO-N-[2-[(4-CHLOROPHENYL)METHYL]-3-OXO-1,2,4-THIADIAZOL-5-YL]BENZAMIDE FOR USE IN MEDICINE” (Betagenon AB, priority 2021, published 2024)
“And” between values parts separate entries of the source, which are not always exact repeats. Identical values can stand only once. Counter-ions that a name gives are not always drawn.

Assay: Pharmacokinetic study in humans, sodium salt in enteric capsules, single and multiple dose (Example 2)
Type: in vivo, human
Procedure: An open, randomised, parallel-group study in healthy volunteers (hereafter referred to as subjects) was conducted to evaluate the exposure of 4-chloro-N-[2-[(4-chlorophenyl)methyl]-3-oxo-1,2,4-thiadiazol-5-yl]benzamide after single and multiple dose administration of 3 dose levels of the sodium salt of 4-chloro-N-[2-[(4-chlorophenyl)methyl]-3-oxo-1,2,4-thiadiazol-5-yl]benzamide and to evaluate combination with dapagliflozin at steady state.
For the study, Vcaps enteric capsules, size 0, were individually filled with 200 mg of milled test material together with 2 mg of sodium docusate, 125 mg of mannitol and 6.5 mg of sodium lauryl sulfate. […]
A screening visit (Visit 1) was performed within 28 days before randomisation and the start of IMP administration. The subjects were confined to the research clinic from the evening before Day 1 (Visit 2; Day—1). […]
Pre-dose safety assessments as well as pre- and post-dose PK assessments were performed. The subjects left the clinic after the last PK-sample on Day 1 and returned for a 24 h PK sample and dosing on Day 2 (Visit 3).
Subjects self-administered the test material at home from Day 3 to Day 15. A telephone visit to check compliance, AE status and use of concomitant medications will be performed on Day 8 (Visit 4).
The subjects returned to the clinic on Days 16 and 17 (Visits 5 and 6), for PK sampling and AE assessment. Visit 6 continued in the evening of Day 17, when the subjects were confined to the clinic until Day 18. On Day 18, pre- and post-dose PK and safety assessments were performed. The subjects left the clinic after the last PK sample on Day 18 and returned for a 24 h PK sample and dosing on Day 19 (Visit 7).
On Day 19 (Visit 7) subjects began co-administration of the test material and dapagliflozin (Forxiga), 10 mg per day for 7 days (Day 19 to Day 25). The subjects returned to the clinic on Day 25 (Visit 8) for final dosing, PK and safety assessments. A final end-of-study visit (Visit 9) for follow-up of safety assessments was conducted 28 days (+14 days) after Visit 8 or after early withdrawal.
Venous blood samples (approximately 5 mL) for the determination of plasma concentrations of 4-chloro-N-[2-[(4-chlorophenyl)methyl]-3-oxo-1,2,4-thiadiazol-5-yl]benzamide after administration of the test material were collected through an indwelling venous catheter on Days 1, 2, 16 to 19 and 25.
The blood samples were collected in pre-labelled Li-Heparin tubes. All the collected blood samples were be centrifuged at 1500 G for 10 minutes to separate plasma within 60 minutes from the sample is drawn. The separated plasma from each blood sample was be divided into 2 aliquots in pre-labelled polypropylene cryotubes (A and B samples, approximately 750 μL in each tube) and frozen at <−70° C. On Day 25, the plasma was divided in to 3 aliquots of at least 500 μL (A and B samples for the test material, and 1 sample for potential future analysis of dapagliflozin).
Samples for determination of plasma concentrations of 4-chloro-N[2-[(4-chlorophenyl)methyl]-3-oxo-1,2,4-thiadiazol-5-yl]benzamide were analysed by Lablytica Life Science AB, Uppsala, Sweden by means of a validated LS-MS/MS method.
The data of plasma concentration to respective time points for the analyte (4-chloro-N-[2-[(4-chlorophenyl)methyl]-3-oxo-1,2,4-thiadiazol-5-yl]benzamide) were used for the pharmacokinetic analysis. Pharmacokinetic analysis was performed using non-compartmental analysis (NCA) module of Phoenix WinNonlin 8.1 software to determine the following pharmacokinetic parameters.
After single dose administration of test material: • AUC0-24, Cmax, Tmax and dose proportionality (based on AUC0-24 and Cmax) (secondary endpoints). […]

[1] = 400 mg Dose Group, capsules once daily, Day 18, Geometric Mean
[2] = 400 mg Dose Group, capsules once daily, Day 18, Mean
[3] = 400 mg Dose Group, capsules once daily, Day 18, Median
[4] = 400 mg Dose Group, capsules once daily, Day 18, individual subjects, listed as test material
[5] = 800 mg Dose Group, capsules once daily, Day 18, Geometric Mean
[6] = 800 mg Dose Group, capsules once daily, Day 18, Mean
[7] = 800 mg Dose Group, capsules once daily, Day 18, Median
[8] = 800 mg Dose Group, capsules once daily, Day 18, individual subjects, listed as test material
[9] = 2000 mg Dose Group, capsule once daily, Day 18, Geometric Mean
[10] = 2000 mg Dose Group, capsule once daily, Day 18, Mean
[11] = 2000 mg Dose Group, capsule once daily, Day 18, Median
[12] = 2000 mg Dose Group, capsule once daily, Day 18, individual subjects, listed as test material
[13] = capsule once daily, Day 18, individual subjects, listed as test material
[14] = dose-normalised, 400 mg Dose Group, capsules once daily, Day 18, Geometric Mean
[15] = dose-normalised, 400 mg Dose Group, capsules once daily, Day 18, Mean
[16] = dose-normalised, 400 mg Dose Group, capsules once daily, Day 18, Median
[17] = dose-normalised, 400 mg Dose Group, capsules once daily, Day 18, individual subjects, listed as test material
[18] = dose-normalised, 800 mg Dose Group, capsules once daily, Day 18, Geometric Mean
[19] = dose-normalised, 800 mg Dose Group, capsules once daily, Day 18, Mean
[20] = dose-normalised, 800 mg Dose Group, capsules once daily, Day 18, Median
[21] = dose-normalised, 800 mg Dose Group, capsules once daily, Day 18, individual subjects, listed as test material
[22] = dose-normalised, 2000 mg Dose Group, capsule once daily, Day 18, Geometric Mean

**Q.** Which results are given for `O=C(Nc1nc(=O)n(Cc2ccc(Cl)cc2)s1)c1ccc(Cl)cc1` [Compound of formula II, sodium salt of 4-chloro-N-[2-[(4-chlorophenyl)methyl]-3-oxo-1,2,4-thiadiazol-5-yl]benzamide]?
**A.** increase in systemic exposure compared to a standard suspension of the active ingredient (200 mg of the sodium salt): up to five-fold; CLss_F [1]: 267.1 mL/h; Clast [1]: 62.75 µg/mL; Tlast [1]: 23.93 h; CLss_F [2]: 271.8 mL/h; Clast [2]: 64.03 µg/mL; Tlast [2]: 23.93 h; CLss_F [3]: 286.3 mL/h; Clast [3]: 60.9 µg/mL; Tlast [3]: 23.93 h; AUC_TAU [4]: 1300 µg·h/mL and 1750 µg·h/mL and 1480 µg·h/mL and 1320 µg·h/mL and 2100 µg·h/mL; AUClast [4]: 1290 µg·h/mL and 1740 µg·h/mL and 1480 µg·h/mL and 1320 µg·h/mL and 2090 µg·h/mL and 1650 µg·h/mL; CLss_F [4]: 330 mL/h and 308 mL/h and 229 mL/h and 270 mL/h and 303 mL/h and 191 mL/h; Clast [4]: 54.7 µg/mL and 50.4 µg/mL and 73.2 µg/mL and 60.9 µg/mL and 49.2 µg/mL and 86.9 µg/mL and 72.9 µg/mL; Tlast [4]: 23.9 h (6×) and 24 h; Tmax [4]: 12 h and 2 h and 3 h and 0.25 h and 23.9 h; CLss_F [5]: 316.5 mL/h; Tlast [5]: 23.92 h; CLss_F [6]: 321.8 mL/h; Tlast [6]: 23.92 h; CLss_F [7]: 292.8 mL/h; Tlast [7]: 23.92 h; Tlast (800 mg Dose Group, capsules once daily, Day 18, individual subjects): 23.9 h; AUC_TAU [8]: 2500 µg·h/mL and 2910 µg·h/mL and 2730 µg·h/mL and 2870 µg·h/mL; AUClast [8]: 2490 µg·h/mL and 2900 µg·h/mL and 2620 µg·h/mL and 2980 µg·h/mL and 2720 µg·h/mL and 2580 µg·h/mL and 2860 µg·h/mL; CLss_F [8]: 442 mL/h and 321 mL/h and 275 mL/h and 293 mL/h and 279 mL/h; Clast [8]: 98 μg/ml and 120 μg/ml and 115 μg/ml (2×) and 127 μg/ml and 110 μg/ml and 117 μg/ml; Cmax [8]: 118 µg/mL and 127 µg/mL and 115 µg/mL and 130 µg/mL and 126 µg/mL and 117 µg/mL and 128 µg/mL; Tmax [8]: 9.98 h and 0 h and 23.9 h and 10 h and 6 h; CLss_F [9]: 202.7 mL/h; Clast [9]: 42.19 µg/mL; Tlast [9]: 23.92 h; CLss_F [10]: 207.9 mL/h; Tlast [10]: 23.92 h; CLss_F [11]: 210.5 mL/h; Clast [11]: 38.7 µg/mL; Tlast [11]: 23.92 h; AUC_TAU [12]: 1130 µg·h/mL and 841 µg·h/mL and 1600 µg·h/mL and 802 µg·h/mL and 950 µg·h/mL and 774 µg·h/mL and 1010 µg·h/mL; CLss_F [12]: 176 mL/h and 238 mL/h and 125 mL/h and 249 mL/h and 210 mL/h and 259 mL/h and 198 mL/h; Tmax [12]: 0.267 h and 23.9 h and 0 h and 10 h and 12 h; Tlast (capsule once daily, Day 18, individual subjects): 23.9 h; AUClast [13]: 1130 µg·h/mL and 1400 µg·h/mL and 838 µg·h/mL and 1600 µg·h/mL and 800 µg·h/mL and 947 µg·h/mL and 772 µg·h/mL and 1010 µg·h/mL; Clast [13]: 47 µg/mL and 62 µg/mL and 33.5 µg/mL and 68 µg/mL and 33.3 µg/mL and 36.7 µg/mL and 30.4 µg/mL and 40.7 µg/mL; Cmax [13]: 52.1 µg/mL and 62 µg/mL and 42 µg/mL and 71.9 µg/mL and 40.2 µg/mL and 46.2 µg/mL and 34.6 µg/mL and 49.9 µg/mL; accumulation in the blood plasma after repeat dosing (capsules, 200-800 mg once daily): substantial accumulation; AUC_TAU_D [14]: 3.744 µg·h/mL/mg; AUClast_D [14]: 3.788 µg·h/mL/mg; Cmax_D [14]: 0.1741 µg/mL/mg; AUC_TAU_D [15]: 3.816 µg·h/mL/mg; AUClast_D [15]: 3.852 µg·h/mL/mg; Cmax_D [15]: 0.1769 µg/mL/mg; AUC_TAU_D [16]: 3.504 µg·h/mL/mg; AUClast_D [16]: 3.703 µg·h/mL/mg; Cmax_D [16]: 0.1653 µg/mL/mg; AUC_TAU_D [17]: 3.03 µg·h/mL/mg and 3.24 µg·h/mL/mg and 4.37 µg·h/mL/mg and 3.71 µg·h/mL/mg and 3.3 µg·h/mL/mg and 5.24 µg·h/mL/mg; AUClast_D [17]: 3.02 µg·h/mL/mg and 3.23 µg·h/mL/mg and 4.36 µg·h/mL/mg and 3.7 µg·h/mL/mg and 3.29 µg·h/mL/mg and 5.23 µg·h/mL/mg and 4.13 µg·h/mL/mg; Cmax_D [17]: 0.141 µg/mL/mg and 0.15 µg/mL/mg and 0.193 µg/mL/mg and 0.165 µg/mL/mg and 0.161 µg/mL/mg and 0.248 µg/mL/mg and 0.182 µg/mL/mg; AUC_TAU_D [18]: 3.159 µg·h/mL/mg; AUClast_D [18]: 3.24 µg·h/mL/mg; Cmax_D [18]: 0.1472 µg/mL/mg; AUC_TAU_D [19]: 3.205 µg·h/mL/mg; AUClast_D [19]: 3.274 µg·h/mL/mg; Cmax_D [19]: 0.1482 µg/mL/mg; AUC_TAU_D [20]: 3.416 µg·h/mL/mg; AUClast_D [20]: 3.337 µg·h/mL/mg; Cmax_D [20]: 0.1525 µg/mL/mg; AUC_TAU_D [21]: 2.26 µg·h/mL/mg and 3.12 µg·h/mL/mg and 3.64 µg·h/mL/mg and 3.27 µg·h/mL/mg and 3.42 µg·h/mL/mg and 3.59 µg·h/mL/mg; AUClast_D [21]: 2.25 µg·h/mL/mg and 3.11 µg·h/mL/mg and 3.63 µg·h/mL/mg and 144 µg·h/mL/mg and 3.73 µg·h/mL/mg and 3.4 µg·h/mL/mg and 3.22 µg·h/mL/mg and 3.58 µg·h/mL/mg; Cmax_D [21]: 0.109 µg/mL/mg and 0.148 µg/mL/mg and 0.159 µg/mL/mg and 0 µg/mL/mg and 0.163 µg/mL/mg and 0.158 µg/mL/mg and 0.146 µg/mL/mg and 0.16 µg/mL/mg; AUC_TAU_D [22]: 4.934 µg·h/mL/mg; AUClast_D [22]: 5.139 µg·h/mL/mg; Cmax D [22]: 0.2432 µg/mL/mg; AUC_TAU_D (dose-normalised, 2000 mg Dose Group, capsule once daily, Day 18, Mean): 5.082 µg·h/mL/mg
